tested on: S. cerevisiae TIM10 counterscreen strain, luminescence; assay: inhibitors of TIM10 yeast strain luminescence, dose response, counter-screen for tim10-1 inhibitor project, S. cerevisiae, uHTS hits (AID 504542)

Row | Structure (SMILES) | IC50 [µM]
1 | CC1=C/C(=N\OS(=O)(=O)c2ccccc2)C(C)=CC1=O | < 0.2
2 | Cc1ccc(/C(N)=N/OC(=O)c2ccc3c(c2)OCO3)cc1 | 2.42
3 | COc1cc(C(=O)Nc2ccc(Cl)c(C(F)(F)F)c2)cc(OC)c1OC | 27.1
4 | CCOC(=O)c1c(CSc2ccc(C)cc2)n(C)c2cc(Br)c(O)c(CN(C)C)c12 | 12.8
5 | Cc1nc(Nc2ccccc2)sc1-c1ccccc1 | 3.09
6 | CC(=O)N1CCN(c2cc(N3CCc4ccccc4C3)c(F)cc2[N+](=O)[O-])CC1 | 19.6
7 | Cc1nonc1C1CCCN1C(=O)c1cc(COc2cccc(C(F)(F)F)c2)on1 (stereo unspecified) | 9.73
8 | Cc1ccc(NC(=S)/N=C(\N)Nc2nc(C)c3cc(C)ccc3n2)c(C)c1 | 12.1
9 | CCOc1ccccc1N1C(=O)CC(Sc2n[nH]c(-c3ccccc3)n2)C1=O (stereo unspecified) | 2.27
10 | CNC(=O)c1nnsc1S(=O)(=O)c1ccc(Cl)cc1 | 12.9
11 | C/C(=N\NC(=S)NCc1ccccc1)c1ccc(Cl)s1 | 11.6
12 | CN(C)CCCN(C(=O)c1cc2cc([N+](=O)[O-])ccc2s1)c1nc2cc3c(cc2s1)OCCO3 | 10.8
13 | COc1ccc(Br)cc1[C@H]1[C@H]2C=CC[C@@H](C)[C@@H]2C(=O)N1Cc1ccccc1 | 6.86
14 | O=C(c1cc(COc2ccc(F)cc2Cl)on1)N1CCN(c2cnccn2)CC1 | 3.98
15 | O=C(N/N=C/c1ccc[nH]1)c1cc(-c2ccc(Cl)cc2)nc2ccccc12 | 4.98
16 | COc1cc(/C=C/c2ccc3cccc(O)c3n2)c(Br)cc1O | 9.2
17 | Cc1cc(C)c(CSc2ncc(-c3ccc([N+](=O)[O-])cc3)[nH]2)c(C)c1 | 10.1
18 | O=C(/C=C\c1ccc(-c2ccccc2)o1)c1ccccc1 | 2.39
19 | COc1ccc(-c2sc3cc4c(cc3c2C#CC2(N)CCCCC2)OCO4)cc1 | 8.21
20 | CC1=C/C(=N\OS(=O)(=O)c2ccccc2)C=CC1=O | 0.26
21 | N=C(N)c1ccc(/C=C/c2ccc(C(=N)N)cc2O)cc1 | 4.36
22 | O=c1oc2ccccc2c(O)c1/C=C1\C=Nc2ccccc21 | 6.1
23 | CCOc1ccccc1NC(=O)/C=C/C(N)=O | 3.32

Row | Structure (SMILES) | IC50 [µM]
24 | COc1cc(OC)c(C(=O)O/N=C(\N)c2ccc(C)cc2)cc1OC | 5.99
25 | Cc1ccc(OCC(=O)O/N=C(\N)Cc2ccc(Cl)cc2)cc1 | 56.7
26 | CCOC(=O)c1ccc(NC(=O)CC2OCCN(CC)C2=O)cc1 (stereo unspecified) | 1.28
27 | Cn1c(/C=C/c2ccc([N+](=O)[O-])o2)nc2ccccc2c1=O | 4.94
28 | N#C/C(=N/Nc1ccc(OC(F)(F)F)cc1)C(N)=S | 1.22
29 | Nc1ccccc1C(=O)/C=C/c1ccc2c(c1)OCO2 | 5.88
30 | NNc1nc(-c2ccccc2)c2cc(Br)ccc2n1 | 15.9
31 | O=C(OCn1ncc(Br)c(Br)c1=O)c1ccccc1Cl | 1.41
32 | COc1ccc2cc3cc(C(=O)NCCN4CCc5ccccc5C4)oc3nc2c1 | < 0.2
33 | Cc1onc(-c2ccc3c(c2)OCO3)c1-c1ccc2[nH]ccc2c1 | 3.49
34 | COc1ccc(/C(C)=N/NC(=S)NCCc2ccccc2)cc1 | 7.83
35 | O=C(/C=C/c1ccc2c(c1)OCCCO2)c1ccccc1O | 4.68
36 | O=C(NNC(=S)Nc1cccc(C(F)(F)F)c1)c1cccc(Cl)c1 | 9.48
37 | COc1ccc(C(=O)Nc2ccc(-n3nncc3C(C)(C)C)cc2)cc1 | 6.59
38 | COc1ccc(Br)cc1[C@H]1[C@@H]2C=CCC[C@@]2(C)C(=O)N1Cc1ccccc1 | 6.12
39 | COc1ccc(Cl)cc1NC(=S)NCCc1ccc(F)cc1 | 11.3
40 | CCCOc1ccc(CN(CCC#N)C(=S)NC(=O)c2ccccc2)cc1 | 10.2
41 | Nc1c(C(=O)Nc2ccccc2)c2nc3ccccc3nc2n1CCCN1CCOCC1 | 9.74
42 | N/C(Cc1ccc(Cl)cc1)=N\OC(=O)c1ccc2ccccc2c1 | 0.26
43 | COc1ccc(-c2[nH]ncc2N=Nc2ccccc2)cc1 | 5.88
44 | CCCCNC(=S)N=Nc1c(O)[nH]c2ccccc12 | 3.19
45 | CCSc1nc2ccccc2n1C(=O)/C=C\c1ccc(OC)c(OC)c1 | 7.72
46 | Cn1c(Cl)cnc1C1CC(=O)c2cc(Cl)ccc2O1 (stereo unspecified) | 1.98

Reference: PubChem BioAssay AID504542 (Sanford-Burnham Center for Chemical Genomics, 2011)
